# Numbers after ± are expanded uncertainties.
# What was measured:
# [1] = molar heat capacity at constant pressure; details: 101.33 kPa, Metastable liquid, Small sample (50 mg) DSC
# [2] = Molar enthalpy of transition or fusion; details: Crystal; DSC
molar heat capacity at constant pressure ([1]; 408 K) [J/K/mol],molar heat capacity at constant pressure ([1]; 413 K) [J/K/mol],molar heat capacity at constant pressure ([1]; 418 K) [J/K/mol],molar heat capacity at constant pressure ([1]; 423 K) [J/K/mol],molar heat capacity at constant pressure ([1]; 428 K) [J/K/mol],Molar enthalpy of transition or fusion [2] [kcal/mol],"Normal melting temperature (Crystal, DTA) [°C]","Glass transition temperature (Glass, DSC) [°C]",SMILES
268 ± 36,269 ± 38,271 ± 40,272 ± 42,274 ± 44,8.34 ± 0.55,334 ± 3,115 ± 3,Nc1cc[nH]c(=O)n1 [4-amino-2-hydroxypyrimidine]
–,–,–,–,–,6.52 ± 0.693,–,–,c1ccc2cc3ccccc3cc2c1 [anthracene]

# Reference: the NIST ThermoML archive (doi:10.1016/j.tca.2017.09.013)
